Patent publication US20250129095A1, “ANNULATED 2-AMINO-3-CYANO THIOPHENES AND DERIVATIVES FOR THE TREATMENT OF CANCER” (Boehringer Ingelheim Int'l GmbH Corp., priority 2021, published 2025)

Experiments:
NCI-H358 cells = test: NCI-H358 CTG proliferation assay (120 h) (NSCLC, G12C); format: cell-based; details: Homo sapiens
Protocol: Additional Proliferation Assays with Mutant Cancer Cell Lines • NCI-H358 CTG proliferation assay (120 h) (NSCLC, G12C)
NCI-H358 cells (ATCC No. CRL-5807) are dispensed into black 384-well plates, flat and clear bottom (Greiner, PNr. 781091) at a density of 200 cells per well in 60 μl RPMI-1640 ATCC-Formulation (Gibco #A10491)+10% FCS (fetal calf serum). […] For the TO time point measurement, untreated cells are analyzed at the time of compound addition. Plates are incubated for 120 h, and cell viability is measured using CellTiter-Glo luminescent cell viability reagent (Promega product code G7570). Viability (stated as percent of control) is defined as relative luminescence units RLU of each well divided by the RLU of cells in DMSO controls.

NCI-H2122 cells = test: NCI-H2122 CTG proliferation assay (120 h) (NSCLC, G12C); format: cell-based; details: Homo sapiens
Protocol: The CTG assay is designed to measure quantitatively the proliferation of NCI-H2122 cells (ATCC CRL-5985), using the CellTiter Glow Assay Kit (Promega G7571). Cells are grown in RPMI medium (ATCC) supplemented with Fetal Calf Serum (Life Technologies, Gibco BRL, Cat. No. 10270-106). On “day 0” 200 NCI-H2122 cells are seeded in 60 μL RPMI ATCC+10% FCS+Penstrep in a black 384-well plate, flat and clear bottom (Greiner, PNr. 781091). Cells are then incubated in the plates at 37° C. in a CO2 incubator overnight. On day 1, compounds (10 mM stock in DMSO) are added with the ECHO acoustic liquid handler system (Beckman Coulter), including DMSO controls. Plates are incubated for 120 h, and cell viability is measured using CellTiter-Glo luminescent cell viability reagent (Promega product code G7570). Viability (stated as percent of control) is defined as relative luminescence units RLU of each well divided by the RLU of cells in DMSO controls. […] values are determined from viability measurements by non-linear regression using a four parameter model. • AsPC-1 CTG proliieradon assay (120 h) (pancreatic cancer, G12D)

KRAS (G12D)::SOS1 = target: T1, KRAS (G12D)::SOS1 (Homo sapiens, UniProt P01116, G12D); test: KRAS::SOS1 AlphaScreen binding assay, KRAS G12D; details: read-out: KRASG12D IC50
T1 construct: KRAS (G12D) 1-169, N-terminal 6His-tag, C-terminal avi-tag; 6His-tag (N); purchased Xtal BioStructures, Inc. (KRAS); Viva Biotech Ltd (SOS1)
T1 sequence (P01116 1-169 isoform P01116-2 G12D): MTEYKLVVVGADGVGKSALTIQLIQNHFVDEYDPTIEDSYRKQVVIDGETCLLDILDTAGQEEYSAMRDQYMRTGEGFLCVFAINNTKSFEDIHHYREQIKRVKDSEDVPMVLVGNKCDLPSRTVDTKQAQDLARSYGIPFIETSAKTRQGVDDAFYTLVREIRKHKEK
Text: This assay can be used to examine the potency with which compounds according to the invention binding to (mutated) KRAS inhibit the protein-protein interaction between SOS1 and (mutated) KRAS e.g., KRAS WT, KRAS G12C, KRAS G12D, KRAS G12V, KRAS G13D. […] Low IC50 values in this assay setting are indicative of strong inhibition of protein-protein interaction between SOS1 and KRAS:
These assays measure the inhibitory effect of compounds on KRAS mutant protein-protein interactions using the Alpha Screen technology by Perkin Elmer
The following (mutant) enzyme forms of KRAS and interacting proteins are used in these assays at the given concentrations: • KRAS (G12D) 1-169, N-terminal 6His-tag, C-terminal avi-tag (Xtal BioStructures, Inc.); final assay concentration 10 nM and SOS1 564-1049, N-terminal 229 GST-tag, TEV cleavage site (Viva Biotech Ltd); final assay concentration 5 nM; • KRAS (G12C) 1-169, N-terminal 6His-tag for purification, cleaved off, C-terminal avi-tag, biotinylated, mutations: C51S, C80L, C118S (in house); final assay concentration 7.5 nM and SOS1 564-1049, N-terminal 229 GST-tag, TEV cleavage site (Viva Biotech Ltd); final assay concentration 5 nM; • KRAS (G12V) 1-169, N-terminal 6His-tag for purification, cleaved off, C-terminal avi-tag, biotinylated, TEV cleavage site, mutation: C118S, GDP loaded (in house); final assay concentration 10 nM and SOS1 564-1049, N-terminal 229 GST-tag, TEV cleavage site (Viva Biotech Ltd); final assay concentration 10 nM; • KRAS (G13D) 1-169, N-terminal 6His-tag for purification, cleaved off, C-terminal avi-tag, biotinylated, TEV cleavage site, mutation: C118S, GDP loaded (in house); final assay concentration 10 nM and SOS1 564-1049, N-terminal 229 GST-tag, TEV cleavage site (Viva Biotech Ltd); final assay concentration 10 nM; • KRAS (WT) 1-169, N-terminal 6His-tag for purification, cleaved off, C-terminal avi-tag, biotinylated, TEV cleavage site, mutation: C118S, GDP loaded (in house); final assay concentration 10 nM and SOS1 564-1049, N-terminal 229 GST-tag, TEV cleavage site (Viva Biotech Ltd); final assay concentration 10 nM.
Test compounds dissolved in DMSO are dispensed onto assay plates (Proxiplate 384 PLUS, white, PerkinElmer; 6008289) using an Access Labcyte Workstation with the Labcyte Echo 55×. For the chosen highest assay concentration of 100 μM, 150 nL of compound solution are transferred from a 10 mM DMSO compound stock solution. A series of eleven fivefold dilutions per compound are transferred to the assay plate, compound dilutions are tested in duplicates. DMSO are added as backfill to a total volume of 150 nL.
The assays run on a fully automated robotic system in a darkened room below 100 Lux. To 150 nl of compound dilution 10 μl of a mix including KRAS mutant protein, SOS1 (final assay concentrations see above) and GDP nucleotide (Sigma G7127; final assay concentration 10 μM) in assay buffer (1×PBS, 0.1% BSA, 0.05% Tween 20) are added into columns 1-24.
After 30 minutes incubation time 5 μl of Alpha Screen bead mix in assay buffer are added into columns 1-23. Bead mix consists of AlphaLISA Glutathione Acceptor Beads (PerkinElmer, Cat No AL109) and AlphaScreen Streptavidin Donor Beads (PerkinElmer Cat No 6760002) in assay buffer at a final assay concentration of 10 μg/ml each.
Plates are kept at room temperature in a darkened incubator. After an additional 60 minutes incubation time the signal is measured in a PerkinElmer Envision HTS Multilabel Reader using the AlphaScreen specs from PerkinElmer.
Each plate contains up to 16 wells of a negative control depending on the dilution procedure (platewise or serial) (DMSO instead of test compound; with KRAS mutant::SOS1 GDP mix and bead mix; column 23) and 16wells of a positive control (DMSO instead of test compound; with KRAS mutant::SOS1 GDP mix w/o bead mix; column 24).
As internal control known inhibitors of KRAS mutant::SOS1 interaction can be measured on each compound plate. […]

Row | IC50 (NCI-H358 cells) [nM] | IC50 (NCI-H2122 cells) [nM] | IC50 (KRAS (G12D)::SOS1) [nM] | SMILES
1 | 36 | 731 | 1 | C[C@H](Oc1cc(O[C@@H]2CNC[C@@H]2F)nc(-c2noc3c2CCC[C@@]32CCCc3sc(N)c(C#N)c32)n1)[C@@H]1CCCN1C [II-29]
2 | 339 | 861 | 1 | COCCOc1cc(O[C@@H](C)[C@@H]2CCCN2C)nc(-c2noc3c2CCC[C@@]32CCCc3sc(N)c(C#N)c32)n1 [II-5]
3 | 85 | 1220 | 1 | CO[C@@H]1C[C@@H]([C@H](C)Oc2cc(O[C@@H]3CNC3(C)C)nc(-c3noc4c3CCC[C@@]43CCCc4sc(N)c(C#N)c43)n2)N(C)C1 [II-30]
4 | 1180 | 1340 | 1 | C[C@H](Oc1cc(O[C@H]2CNC(C)(C)C2)nc(-c2noc3c2CCC[C@@]32CCCc3sc(N)c(C#N)c32)n1)[C@@H]1CCCN1C (single isomer, unassigned) [II-8]
5 | 115 | 77 | 2 | C[C@H](Oc1cc(Oc2nccs2)nc(-c2noc3c2CCC[C@@]32CCCc3sc(N)c(C#N)c32)n1)[C@@H]1CCCN1C [II-2]
6 | 165 | 1650 | 1 | C[C@H](Oc1cc(OCCO)nc(-c2noc3c2CCC[C@@]32CCCc3sc(N)c(C#N)c32)n1)[C@@H]1CCCN1C [II-6]
7 | 193 | 817 | 2 | C[C@H](Oc1cc(O[C@H]2CCOC2)nc(-c2noc3c2CCC[C@@]32CCCc3sc(N)c(C#N)c32)n1)[C@@H]1CCCN1C [II-4]
